In one series the test system is HIV (HTLV-IIIB). In words: microbe, parasite or virus in culture. In kind it is cell-based.
The next series relates to Rhino type 55. In words: Virus inhibition test (MIC). In kind it is cell-based, rhinovirus type 55. The following applies: Enterovirus, in vitro, read-out: Minimum inhibitory conc. (MIC).
A short description of series [1]: Toxicity control, minimum toxic concentration (MTC). In kind it is cell-based. As to conditions: cell density still lower than in the cell control.
The test system of another series is Rhino type 3. Description: Virus inhibition test (MIC). The following applies: Enterovirus, in vitro, read-out: Minimum inhibitory conc. (MIC). In kind it is cell-based, rhinovirus type 3.
For the next series, the system named is Rhino type 37. Description: Virus inhibition test (MIC). In kind it is cell-based, rhinovirus type 37. As to conditions: Enterovirus, in vitro, read-out: Minimum inhibitory conc. (MIC).
A short description of the next series: ATH8 cell viability. As to conditions: human, ath8 cells.
For a further series, the system named is Polio type 2. In words: microbe, parasite or virus in culture. In kind it is cell-based, poliovirus type 2. The following applies: Enterovirus C, read-out: Minimum inhibitory conc. (MIC).
A further series relates to Echo type B-9. In words: Virus inhibition test (MIC). In kind it is cell-based, echovirus type B-9. The following applies: Echovirus, in vitro, read-out: Minimum inhibitory conc. (MIC).
For a further series, the system named is Rhino type 26. In words: Virus inhibition test (MIC). In kind it is cell-based, rhinovirus type 26. The following applies: Enterovirus, in vitro, read-out: Minimum inhibitory conc. (MIC).
In another series the test system is Rhino type 16. In words: Virus inhibition test (MIC). In kind it is cell-based, rhinovirus type 16. The following applies: Enterovirus, in vitro, read-out: Minimum inhibitory conc. (MIC).
For another series, the system named is Rhino type 32. In words: Virus inhibition test (MIC). In kind it is cell-based, rhinovirus type 32. As to conditions: Enterovirus, in vitro, read-out: Minimum inhibitory conc. (MIC).
The next series relates to Rhino type 48. In words: Virus inhibition test (MIC). In kind it is cell-based, rhinovirus type 48. The following applies: Enterovirus, in vitro, read-out: Minimum inhibitory conc. (MIC).

≈ marks a conversion by molar mass, not a printed value.

A word on the CC50: it is the concentration at which the toxic effect on the cells reaches its halfway point. Low values mean greater toxicity to the cells, high ones lower toxicity to the cells.

On to `Cc1cc(CCCCCCCOc2ccc(C3=NCCO3)s2)on1` [Compound A, 5-(7-(5-(4,5-dihydro-2-oxazolyl)-2-thienyl)-oxyheptyl)-3-methyl-isoxazole], for which, in the series on HIV (HTLV-IIIB) (ATH8 cells), the “inhibitory effect on HIV-induced cytopathogenicity in ATH8 cells” value is on record as “marked inhibitory effect”. Also, the “ID50/MIC50 (in vitro therapeutic index)” value in the series on HIV (HTLV-IIIB) (ATH8 cells, day 6-7 after virus inoculation) came to 175; in the series on HIV (HTLV-IIIB) (ATH8 cells, day 10 after virus inoculation), 175. In addition, the EC50 with HIV (HTLV-IIIB) (Human immunodeficiency virus 1, IIIB, ATH-8, 168 h, read-out: MIC50) was 0.2 µM. The MIC in the series on Rhino type 55 was 0.3 µg/mL (≈ 0.861 µM); in the series on Rhino type 3, 0.03 µg/mL (≈ 0.0861 µM); in the series on Rhino type 37, 0.03 µg/mL (≈ 0.0861 µM); with Polio type 2, 0.1 µg/mL (≈ 0.287 µM); in the series with Echo type B-9, 0.03 µg/mL (≈ 0.0861 µM); with Rhino type 26, 0.3 µg/mL (≈ 0.861 µM). The MIC in the series on Rhino type 16 amounted to 0.3 µg/mL (≈ 0.861 µM); with Rhino type 32, 1 µg/mL (≈ 2.87 µM); in the series on Rhino type 48, 0.1 µg/mL (≈ 0.287 µM). Moreover, in series [1], the MCC came out at 10 µg/mL. Further, half-maximal cytotoxicity in the series “ATH8 cell viability” (CC50) was put at 35 µM. In “ATH8 cell viability”, this compound gave a CC50 at 240 h of 35 µM.
Turning to `Cc1cc(CCCCCCCOc2csc(C3=NCCO3)c2)on1` [Compound B, 5-(7-(2-(4,5-dihydro-2-oxazolyl)-4-thienyl)oxyheptyl)-3-methyl-isoxazole], the MIC in the series with Rhino type 55 is 0.3 µg/mL (≈ 0.861 µM); with Rhino type 3 it was 0.1 µg/mL (≈ 0.287 µM); with Rhino type 37 it was 0.03 µg/mL (≈ 0.0861 µM); in the series with Polio type 2 it was 1 µg/mL (≈ 2.87 µM); with Echo type B-9 it was 1 µg/mL (≈ 2.87 µM); in the series with Rhino type 26, 1 µg/mL (≈ 2.87 µM). Moreover, the MIC is 1 µg/mL (≈ 2.87 µM) in the series on Rhino type 16, 3 µg/mL (≈ 8.61 µM) in the series with Rhino type 32 and 1 µg/mL (≈ 2.87 µM) with Rhino type 48. The MCC in series [1] was determined as 10 µg/mL.

Source of the values: patent US4812472A, “Isoxazole compounds and pharmaceutical compositions containing them for treatment and prophylaxis of retroviruses diseases” (Chemie Linz Akteingesellschaft, priority 1985, dated 1989).
